Data: PubChem BioAssay (NCI)
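Following 48 hours of exposure in 96-well plates, responses at five concentrations were used to interpolate endpoints linearly. GI50: concentration for 50% inhibition of growth. Definition used: TGI = concentration required for complete inhibition of growth.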

What was measured:
Test in all cases: NCI tumour cell line growth inhibition, 48 h
K-562 leukemia = tested on: K-562 leukemia
HS 578T breast = tested on: HS 578T breast
MALME-3M melanoma = tested on: MALME-3M melanoma
SW-620 colon = tested on: SW-620 colon
786-0 renal = tested on: 786-0 renal
RPMI-8226 leukemia = tested on: RPMI-8226 leukemia
MDA-MB-468 breast = tested on: MDA-MB-468 breast
SN12C renal = tested on: SN12C renal
HCT-116 colon = tested on: HCT-116 colon
HOP-62 NSCLC = tested on: HOP-62 NSCLC
SF-268 CNS = tested on: SF-268 CNS
M14 melanoma = tested on: M14 melanoma
UACC-257 melanoma = tested on: UACC-257 melanoma
A498 renal = tested on: A498 renal
HCC-2998 colon = tested on: HCC-2998 colon
OVCAR-8 ovarian = tested on: OVCAR-8 ovarian
NCI-H460 lung = tested on: NCI-H460 lung
HL-60(TB) leukemia = tested on: HL-60(TB) leukemia
MOLT-4 leukemia = tested on: MOLT-4 leukemia
SF-539 CNS = tested on: SF-539 CNS
U251 CNS = tested on: U251 CNS
BT-549 breast = tested on: BT-549 breast
DU-145 prostate = tested on: DU-145 prostate
IGROV1 ovarian = tested on: IGROV1 ovarian
NCI-H226 lung = tested on: NCI-H226 lung
LOX IMVI melanoma = tested on: LOX IMVI melanoma
TK-10 renal = tested on: TK-10 renal
SNB-19 CNS = tested on: SNB-19 CNS
CCRF-CEM leukemia = tested on: CCRF-CEM leukemia
NCI-H522 lung = tested on: NCI-H522 lung
SK-MEL-28 melanoma = tested on: SK-MEL-28 melanoma
HOP-92 NSCLC = tested on: HOP-92 NSCLC
UACC-62 melanoma = tested on: UACC-62 melanoma
OVCAR-3 ovarian = tested on: OVCAR-3 ovarian
SK-OV-3 ovarian = tested on: SK-OV-3 ovarian
SK-MEL-5 melanoma = tested on: SK-MEL-5 melanoma
SK-MEL-2 melanoma = tested on: SK-MEL-2 melanoma
NCI-H23 lung = tested on: NCI-H23 lung
MDA-MB-435 = tested on: MDA-MB-435
SNB-75 CNS = tested on: SNB-75 CNS
EKVX NSCLC = tested on: EKVX NSCLC
A549 NSCLC = tested on: A549 NSCLC
CAKI-1 renal = tested on: CAKI-1 renal
OVCAR-5 ovarian = tested on: OVCAR-5 ovarian
ACHN renal = tested on: ACHN renal
PC-3 prostate = tested on: PC-3 prostate
HT29 colon = tested on: HT29 colon
RXF 393 renal = tested on: RXF 393 renal
SF-295 CNS = tested on: SF-295 CNS
OVCAR-4 ovarian = tested on: OVCAR-4 ovarian
HCT-15 colon = tested on: HCT-15 colon
KM12 colon = tested on: KM12 colon
NCI/ADR-RES ovarian = tested on: NCI/ADR-RES ovarian
COLO 205 colon = tested on: COLO 205 colon
MCF7 breast = tested on: MCF7 breast
T-47D breast = tested on: T-47D breast

SMILES: COc1ccc2[nH]c(=O)c(CSc3nccc(-c4ccc(Cl)cc4)n3)cc2c1
- GI50 (K-562 leukemia): 27.8 µM
- TGI (K-562 leukemia): > 100 µM
- GI50 (HS 578T breast): 26 µM
- TGI (HS 578T breast): > 100 µM
- GI50 (MALME-3M melanoma): 18.6 µM
- TGI (MALME-3M melanoma): 38.6 µM
- GI50 (SW-620 colon): 20.6 µM
- TGI (SW-620 colon): 45.9 µM
- GI50 (786-0 renal): 13.8 µM
- TGI (786-0 renal): 26.7 µM
- GI50 (RPMI-8226 leukemia): 11.7 µM
- TGI (RPMI-8226 leukemia): 39.5 µM
- GI50 (MDA-MB-468 breast): 12.5 µM
- TGI (MDA-MB-468 breast): 26.1 µM
- GI50 (SN12C renal): 15.2 µM
- TGI (SN12C renal): 32.9 µM
- GI50 (HCT-116 colon): 13 µM
- TGI (HCT-116 colon): 26.8 µM
- GI50 (HOP-62 NSCLC): 16.5 µM
- TGI (HOP-62 NSCLC): 34.3 µM
- GI50 (SF-268 CNS): 25.4 µM
- TGI (SF-268 CNS): > 100 µM
- GI50 (M14 melanoma): 17.6 µM
- TGI (M14 melanoma): 34.2 µM
- GI50 (UACC-257 melanoma): 22.2 µM
- TGI (UACC-257 melanoma): 55.6 µM
- GI50 (A498 renal): 23.8 µM
- TGI (A498 renal): 63 µM
- GI50 (HCC-2998 colon): 22.5 µM
- TGI (HCC-2998 colon): 56.3 µM
- GI50 (OVCAR-8 ovarian): 16.8 µM
- TGI (OVCAR-8 ovarian): 32.4 µM
- GI50 (NCI-H460 lung): 17.2 µM
- TGI (NCI-H460 lung): 35.4 µM
- GI50 (HL-60(TB) leukemia): > 100 µM
- TGI (HL-60(TB) leukemia): > 100 µM
- GI50 (MOLT-4 leukemia): 12 µM
- TGI (MOLT-4 leukemia): > 100 µM
- GI50 (SF-539 CNS): 14.9 µM
- TGI (SF-539 CNS): 29.7 µM
- GI50 (U251 CNS): 15.2 µM
- TGI (U251 CNS): 28.8 µM
- GI50 (BT-549 breast): 20 µM
- TGI (BT-549 breast): > 100 µM
- GI50 (DU-145 prostate): 26 µM
- TGI (DU-145 prostate): > 100 µM
- GI50 (IGROV1 ovarian): 25.5 µM
- TGI (IGROV1 ovarian): 89.7 µM
- GI50 (NCI-H226 lung): 18.5 µM
- TGI (NCI-H226 lung): 59.9 µM
- GI50 (LOX IMVI melanoma): 17.1 µM
- TGI (LOX IMVI melanoma): 34.2 µM
- GI50 (TK-10 renal): 16.6 µM
- TGI (TK-10 renal): 36.1 µM
- GI50 (SNB-19 CNS): 18 µM
- TGI (SNB-19 CNS): 43.5 µM
- GI50 (CCRF-CEM leukemia): 77.1 µM
- TGI (CCRF-CEM leukemia): > 100 µM
- GI50 (NCI-H522 lung): 14.8 µM
- TGI (NCI-H522 lung): 28.5 µM
- GI50 (SK-MEL-28 melanoma): 20.6 µM
- TGI (SK-MEL-28 melanoma): 51.6 µM
- GI50 (HOP-92 NSCLC): 6.22 µM
- TGI (HOP-92 NSCLC): 32.5 µM
- GI50 (UACC-62 melanoma): 15.3 µM
- TGI (UACC-62 melanoma): 78.3 µM
- GI50 (OVCAR-3 ovarian): 18.6 µM
- TGI (OVCAR-3 ovarian): 39.1 µM
- GI50 (SK-OV-3 ovarian): 39.3 µM
- TGI (SK-OV-3 ovarian): > 100 µM
- GI50 (SK-MEL-5 melanoma): 13.6 µM
- TGI (SK-MEL-5 melanoma): 31.3 µM
- GI50 (SK-MEL-2 melanoma): 18.1 µM
- TGI (SK-MEL-2 melanoma): 44 µM
- GI50 (NCI-H23 lung): 18.9 µM
- TGI (NCI-H23 lung): 42.5 µM
- GI50 (MDA-MB-435): 30 µM
- TGI (MDA-MB-435): > 100 µM
- GI50 (SNB-75 CNS): 23.7 µM
- TGI (SNB-75 CNS): 65.1 µM
- GI50 (EKVX NSCLC): 31.2 µM
- TGI (EKVX NSCLC): > 100 µM
- GI50 (A549 NSCLC): 14.6 µM
- TGI (A549 NSCLC): 30.8 µM
- GI50 (CAKI-1 renal): 15.8 µM
- TGI (CAKI-1 renal): 37.7 µM
- GI50 (OVCAR-5 ovarian): 24.7 µM
- TGI (OVCAR-5 ovarian): 93 µM
- GI50 (ACHN renal): 16.8 µM
- TGI (ACHN renal): 40.1 µM
- GI50 (PC-3 prostate): 19 µM
- TGI (PC-3 prostate): > 100 µM
- GI50 (HT29 colon): 28.9 µM
- TGI (HT29 colon): > 100 µM
- GI50 (RXF 393 renal): 14.4 µM
- TGI (RXF 393 renal): 28.5 µM
- GI50 (SF-295 CNS): 14.4 µM
- TGI (SF-295 CNS): 28.4 µM
- GI50 (OVCAR-4 ovarian): 18.5 µM
- TGI (OVCAR-4 ovarian): 64.9 µM
- GI50 (HCT-15 colon): 22 µM
- TGI (HCT-15 colon): 65.8 µM
- GI50 (KM12 colon): 29.2 µM
- TGI (KM12 colon): 90.9 µM
- GI50 (NCI/ADR-RES ovarian): 15.4 µM
- TGI (NCI/ADR-RES ovarian): 38.7 µM
- GI50 (COLO 205 colon): 23.9 µM
- TGI (COLO 205 colon): 61.7 µM
- GI50 (MCF7 breast): 17 µM
- TGI (MCF7 breast): 33.5 µM
- GI50 (T-47D breast): 13.7 µM
- TGI (T-47D breast): 31 µM
